According to US20120313040A1, “COATING LIQUID, OPTICAL ANISOTROPIC FILM AND IMAGE DISPLAY DEVICE” (NITTO DENKO CORPORATION, priority 2011, published 2012):
Where two headings read alike, the source gives them in different places.

What was measured:
[1] = Dissolution in ion-exchanged water to prepare a 30 mass % coating liquid; type: physicochemical
Protocol: The lyotropic liquid crystalline compound of formula (4) was dissolved in ion-exchanged water, thereby preparing a coating liquid having a concentration of the lyotropic liquid crystalline compound of 30 mass %.
The lyotropic liquid crystalline compound of formula (5) was dissolved in ion-exchanged water, thereby preparing a coating liquid having a concentration of the lyotropic liquid crystalline compound of 30 mass %.
In Comparative Example 1, there was used a perylenetetracarboxylic acid diimide represented by formula (6), which was an intermediate product in Synthesis Example 1 of Lyotropic Liquid Crystalline Compound. Using this compound, it was tried to obtain a coating liquid having a concentration of the lyotropic liquid crystalline compound of 30 mass % in the same manner as in Example 1.
In Comparative Example 2, there was used a compound represented by formula (7), which was an intermediate product in Synthesis Example 2 of Lyotropic Liquid Crystalline Compound. Using this compound, it was tried to obtain a coating liquid having a concentration of the lyotropic liquid crystalline compound of 30 mass % in the same manner as in Example 1.

[2] = Observation of liquid crystal phase of the coating liquid under a polarizing microscope; type: physicochemical; conditions: 30 mass % in ion-exchanged water, observed at 23° C.
Source text: A small amount of the coating liquid was sandwiched between two glass slides, and a liquid crystal phase thereof was observed using a polarizing microscope (manufactured by Olympus Corporation, product name: “OPTIPHOT-POL”) equipped with a large-sized sample heating/cooling stage for microscope (manufactured by Japan High Tech Co., Ltd., product: name “10013L”).

Row | SMILES | solubility in ion-exchanged water ([1]; ion-exchanged water, target concentration 30 mass %) | liquid crystal phase of coating liquid [2] | solubility in ion-exchanged water [1]
1 | C[n+]1ccc(N2C(=O)c3ccc4c5ccc6c7c(ccc(c8ccc(c3c48)C2=O)c75)C(=O)N(c2cc[n+](C)cc2)C6=O)cc1 [formula (4), N,N′-bis(4-N-methylpyridyl)-3,4,9,10-perylenecarboxylic acid diimide dichloride] | dissolved in water easily and well | nematic liquid crystal phase | 
2 | O=c1c2ccc3c4ccc5c6c(ccc(c7ccc(c2c37)c2nc3cnccc3n12)c46)c(=O)n1c2ccncc2nc51 [formula (7), reference compound] |  | no liquid crystal phase | scarcely dissolved in ion-exchanged water
3 | O=C1c2ccc3c4ccc5c6c(ccc(c7ccc(c2c37)C(=O)N1c1ccncc1)c64)C(=O)N(c1ccncc1)C5=O [formula (6), perylenetetracarboxylic acid diimide, reference compound] |  |  | scarcely dissolved in ion-exchanged water
4 | C[n+]1ccc2c(c1)nc1c3ccc4c5ccc6c(=O)n7c8cc[n+](C)cc8nc7c7ccc(c8ccc(c(=O)n21)c3c84)c5c67 [formula (5)] |  | nematic liquid crystal phase | dissolved in water easily and well
